Laboratory results as given in ChEMBL document CHEMBL4699536, “Discovery of Natural Compounds for Cardiac Fibrosis by a Transcriptome-Based Functional Gene Module Reference Approach” (J Nat Prod, 2020).
The source made the active and inactive calls.

Tests used:
Format in all cases: functional, organism-based
Details in all cases: time 30.0 day
Rattus norvegicus [1] = assay: Cardioprotective activity in Sprague-Dawley rat model of LAD coronary artery ligation-induced cardiac fibrosis assessed as decrease in Col3a1 mRNA expression at 10 mg/kg, po administered via gavage for 30 days by RT2 Profiler PCR Array
Rattus norvegicus [2] = assay: Cardioprotective activity in Sprague-Dawley rat model of LAD coronary artery ligation-induced cardiac fibrosis assessed as decrease in myocardial necrotic area at 10 mg/kg, po administered via gavage for 30 days
Rattus norvegicus [3] = assay: Cardioprotective activity in Sprague-Dawley rat model of LAD coronary artery ligation-induced cardiac fibrosis assessed as reduction in infarct survival area of myocardial cells at 10 mg/kg, po administered via gavage for 30 days by H and E staining based optical microscopic method
Rattus norvegicus [4] = assay: Cardioprotective activity in Sprague-Dawley rat model of LAD coronary artery ligation-induced cardiac fibrosis assessed as decrease in collagen in heart at 10 mg/kg, po administered via gavage for 30 days by Masson trichrome staining based microscopic method
Rattus norvegicus [5] = assay: Cardioprotective activity in Sprague-Dawley rat model of LAD coronary artery ligation-induced cardiac fibrosis assessed as decrease in CTGF mRNA expression at 10 mg/kg, po administered via gavage for 30 days by RT2 Profiler PCR Array
Rattus norvegicus [6] = assay: Cardioprotective activity in Sprague-Dawley rat model of LAD coronary artery ligation-induced cardiac fibrosis assessed as increase in ejection fraction at 10 mg/kg, po administered via gavage for 30 days by echocardiography
Rattus norvegicus [7] = assay: Cardioprotective activity in Sprague-Dawley rat model of LAD coronary artery ligation-induced cardiac fibrosis assessed as decrease in heart weight ratio at 10 mg/kg, po administered via gavage for 30 days
Rattus norvegicus [8] = assay: Cardioprotective activity in Sprague-Dawley rat model of LAD coronary artery ligation-induced cardiac fibrosis assessed as decrease in Lox mRNA expression at 10 mg/kg, po administered via gavage for 30 days by RT2 Profiler PCR Array
Rattus norvegicus [9] = assay: Cardioprotective activity in Sprague-Dawley rat model of LAD coronary artery ligation-induced cardiac fibrosis assessed as decrease in collagen volume fraction at 10 mg/kg, po administered via gavage for 30 days by Masson trichrome staining based microscopic method
Rattus norvegicus [10] = assay: Cardioprotective activity in Sprague-Dawley rat model of LAD coronary artery ligation-induced cardiac fibrosis assessed as increase in left ventricular function by measuring reduction in LAD-induced anterior wall weakened at 10 mg/kg, po administered via gavage for 30 days by echocardiography
Rattus norvegicus [11] = assay: Cardioprotective activity in Sprague-Dawley rat model of LAD coronary artery ligation-induced cardiac fibrosis assessed as increase in organized myocardial cells at 10 mg/kg, po administered via gavage for 30 days by H and E staining based optical microscopic method
Rattus norvegicus [12] = assay: Cardioprotective activity in Sprague-Dawley rat model of LAD coronary artery ligation-induced cardiac fibrosis assessed as increase in fractional shortening at 10 mg/kg, po administered via gavage for 30 days by echocardiography
Rattus norvegicus [13] = assay: Cardioprotective activity in Sprague-Dawley rat model of LAD coronary artery ligation-induced cardiac fibrosis assessed as decrease in collagen volume fraction at 2.86 mg/kg, po administered via gavage for 30 days by Masson trichrome staining based microscopic method
Rattus norvegicus [14] = assay: Cardioprotective activity in Sprague-Dawley rat model of LAD coronary artery ligation-induced cardiac fibrosis assessed as decrease in collagen in heart at 2.86 mg/kg, po administered via gavage for 30 days by Masson trichrome staining based microscopic method
Rattus norvegicus [15] = assay: Cardioprotective activity in Sprague-Dawley rat model of LAD coronary artery ligation-induced cardiac fibrosis assessed as increase in fractional shortening at 2.86 mg/kg, po administered via gavage for 30 days by echocardiography
Rattus norvegicus [16] = assay: Cardioprotective activity in Sprague-Dawley rat model of LAD coronary artery ligation-induced cardiac fibrosis assessed as increase in ejection fraction at 2.86 mg/kg, po administered via gavage for 30 days by echocardiography
Rattus norvegicus [17] = assay: Cardioprotective activity in Sprague-Dawley rat model of LAD coronary artery ligation-induced cardiac fibrosis assessed as increase in organized myocardial cells at 2.86 mg/kg, po administered via gavage for 30 days by H and E staining based optical microscopic method
Rattus norvegicus [18] = assay: Cardioprotective activity in Sprague-Dawley rat model of LAD coronary artery ligation-induced cardiac fibrosis assessed as increase in left ventricular function by measuring reduction in LAD-induced anterior wall weakened at 2.86 mg/kg, po administered via gavage for 30 days by echocardiography
Rattus norvegicus [19] = assay: Cardioprotective activity in Sprague-Dawley rat model of LAD coronary artery ligation-induced cardiac fibrosis assessed as decrease in heart weight ratio at 2.86 mg/kg, po administered via gavage for 30 days
Rattus norvegicus [20] = assay: Cardioprotective activity in Sprague-Dawley rat model of LAD coronary artery ligation-induced cardiac fibrosis assessed as decrease in myocardial necrotic area at 2.86 mg/kg, po administered via gavage for 30 days
Rattus norvegicus [21] = assay: Cardioprotective activity in Sprague-Dawley rat model of LAD coronary artery ligation-induced cardiac fibrosis assessed as reduction in infarct survival area of myocardial cells at 2.86 mg/kg, po administered via gavage for 30 days by H and E staining based optical microscopic method

Measured: Activity

COc1cc2c(c(OC)c1OC)-c1c(cc3c(c1OC)OCO3)C[C@H](C)[C@](C)(O)[C@H]2OC(=O)c1ccccc1
active: Rattus norvegicus [1] | Rattus norvegicus [2] | Rattus norvegicus [3] | Rattus norvegicus [4] | Rattus norvegicus [5] | Rattus norvegicus [6] | Rattus norvegicus [7] | Rattus norvegicus [8] | Rattus norvegicus [9] | Rattus norvegicus [10] | Rattus norvegicus [11] | Rattus norvegicus [12]

CCOC(=O)[C@H](CCc1ccccc1)N[C@@H](C)C(=O)N1CCC[C@H]1C(=O)O
active: Rattus norvegicus [13] | Rattus norvegicus [14] | Rattus norvegicus [15] | Rattus norvegicus [16] | Rattus norvegicus [17] | Rattus norvegicus [18] | Rattus norvegicus [19] | Rattus norvegicus [20] | Rattus norvegicus [21]
